# Measured values published in PMC9266914, “Broad Spectrum Functional Activity of Structurally Related Monoanionic Au(III) Bis(Dithiolene) Complexes” (International Journal of Molecular Sciences, 2022).
# Like-named read-outs stand apart in the source and are kept apart here. Marks after values point to notes of the source that are not given here.
# Assays:
# [1] = system: A2780 ovarian cancer cells; assay: MTT cytotoxicity assay in A2780 (cisplatin sensitive) ovarian cancer cells; assay type: cell-based, human
# Method: (§1) Cells were exposed to increasing concentrations of the complexes (0.01–100 μM) for 24 and/or 48 h, at 37 °C. The IC50 values were calculated from dose–response curves using the colorimetric MTT assay. […] Most complexes presented a similar cytotoxicity profile compared to Auranofin, but higher activity compared to Cisplatin, and, most importantly, were active in the Cisplatin-resistant OVCAR8 cells (Table 2).
# (§2) The cytotoxic activity of the complexes was evaluated in the A2780 (cisplatin sensitive) (Sigma-Aldrich) and OVCAR8 (cisplatin resistant) (ATCC) ovarian cancer cells. Cells were grown in RPMI-1640 medium (Gibco, Thermo Fisher) supplemented with 10% fetal bovine serum (FBS) and were maintained at 37 °C in a humidified atmosphere with 5% CO2. The complexes were initially dissolved in DMSO and then in culture medium to prepare serial dilutions in the range 10^−9–10^−4 M. After 24 and/or 48 h incubation the cellular viability was measured by the colorimetric MTT assay, as previously described.
# C. albicans SC5134 = assay: MIC determination, C. albicans; assay type: cell-based, Candida albicans; details: RPMIG, 24 h, 35 °C
# Description: (§3) The bacterial strains Escherichia coli ATCC25922 and Staphylococcus aureus Newman were used in this work and maintained in Lennox Broth (LB) solid medium, composed of 10 g/L tryptone, 5 g/L yeast extract, 5 g/L NaCl and 20 g/L agar. The fungal strains Candida albicans SC5134 and C. glabrata CBS138 were used in this work and maintained in YPD solid medium, composed of 20 g/L glucose, 20 g/L peptone, 10 g/L yeast extract and 15 g/L agar. The strains were isolated from human infections.
# (§4) The antimicrobial activity of the complexes towards the bacterial and fungal strains was assessed by the determination of the Minimal Inhibitory Concentration (MIC) of each complex towards the indicated microbial strains, based on standard methods, and as previously described. […] Serial 1:2 dilutions of stock solutions were prepared for each complex in Mueller–Hinton (MH) broth (Fluka Analytical) or RPMI-1640 medium (Sigma) supplemented with 20 g/L glucose and buffered with 0.165 M morpholinepropanesulphonic acid (RPMIG) to pH 7.0. Solutions prepared with MH were used for testing bacteria, while those prepared with RPMIG were used for testing fungi. For antibacterial activity assays, the final concentrations ranged from 250 to 0.24 μg/mL (when stock solution final concentration was 10 mg/mL), 125 μg/mL to 0.12 μg/mL (when stock solution final concentration was 5 mg/mL) and 62.5 to 0.06 μg/mL (when stock solution final concentration was 2.5 mg/mL). For antifungal assays, the final concentrations ranged from 125 μg/mL to 0.12 μg/mL (when stock solution final concentration was 10 mg/mL), 62.5 to 0.06 μg/mL (when stock solution final concentration was 5 mg/mL) and 31.25 to 0.03 μg/mL (when stock solution final concentration was 2.5 mg/mL). Then, 100 μL aliquots of adequately diluted bacterial suspensions of S. aureus Newman or E. coli ATCC 25922 were mixed with the MH serially diluted complexes aliquots to obtain 5 × 10^5 CFU/mL. In the case of fungi, cultures were diluted to obtain a final optical density of 0.025, measured at 530 nm (OD530). Bacterial suspensions were prepared from cultures grown for 5 h in MH broth at 37 °C and 250 rev·min^−1 and adequately diluted with fresh MH medium, while fungal suspensions were prepared from overnight cultures grown in YPD broth at 30 °C and 250 rev.min^−1 and diluted in buffered RPMIG. After 22 h of incubation at 37 °C (bacteria) or 24 h at 35 °C (fungi), the wells’ content was resuspended by pipetting and the OD640 (bacteria) or OD530 (fungi) were measured in a SPECTROstar Nano microplate reader (BMG Labtech).
# (§5) At least three independent experiments were performed in duplicate for each complex under study. […] Positive (no complex) and negative controls (no inoculum) were performed for each experiment. The effect of 5% (V/V) DMSO on microbial growth was also assessed.
# C. glabrata CBS138 = assay: MIC determination, C. glabrata; assay type: cell-based, Candida glabrata; details: RPMIG, 24 h, 35 °C
# Description: as §3, §4, §5
# S. aureus Newman = assay: MIC determination, S. aureus; assay type: cell-based, Staphylococcus aureus; details: MH broth, 22 h, 37 °C
# Description: as §3, §4, §5
# E. coli ATCC25922 = assay: MIC determination, E. coli; assay type: cell-based, Escherichia coli; details: MH broth, 22 h, 37 °C
# Description: as §3, §4, §5
# [2] = system: OVCAR8 ovarian cancer cells; assay: MTT cytotoxicity assay in OVCAR8 (cisplatin resistant) ovarian cancer cells; assay type: cell-based, human; details: 48 h incubation
# Method: as §1, §2
# Cyclic voltammetry = assay type: physicochemical; details: for E1/2 −1/0, first value of cell (anodic peak) / E −2/−1 (reduction of monoanion into dianion) / E1/2 −1/0, second value of cell (cathodic peak) / Epa2 0/+1 / Epc2 0/+1: CH2Cl2, NBu4PF6, Pt, 100 mV.s^−1
# Description: The redox properties of the various gold(III) bis(dithiolene) and bis(diselenolene) complexes were investigated by cyclic voltammetry using the same conditions, dichloromethane solutions and NBu4PF6 as supporting electrolyte. Under these conditions, the nature of the counter-ion, Ph4P^+ or Et4N^+, had no influence on the redox properties observed, due to ion exchange with the Bu4N^+ of the supporting electrolyte. Thus, only the result of one monoanion is included in Table 1, even if the two salts were analyzed. For all the investigated monoanionic bis(dithiolene) complexes, three redox processes are observed on the cyclic voltammograms. On the anodic scan, the two oxidation waves correspond to the oxidation of the monoanionic species into the neutral and to the monocationic complex. Most of these complexes had the tendency to deposit on the electrode once oxidized and frequently a strong desorption peak was observed on the reversible scan. This phenomenon occurs essentially for the complex with an exocyclic sulfur atom, [AuSR(=S)]^−1. On the cathodic scan, an irreversible process associated with the reduction in the monoanion into the dianion occurs (Scheme 2). […] The presence of oxygen instead of sulfur makes the oxidation of the monoanionic into the neutral species easier. On the other hand, the presence of electron-withdrawing substituents such as =C(CN)2 induces an anodic shift of the oxidation potentials by 300 mV, compared with the =O derivative, leading to a monoanion which is more difficult to oxidize than the other complexes of the series. […] Indeed, the potential difference between the second and the first oxidation potentials amounts to 470 mV and 410 mV for the =O and the =C(CN)2 derivatives, respectively, while for the =S analogues this value is smaller (170 mV). […] For comparison, we also investigated the redox behavior of Auranofin using the same experimental conditions in CH2Cl2 in the presence of NBu4PF6 as a supporting electrolyte. Using these conditions, upon anodic scan only one irreversible oxidation process is observed at 1.42 V vs. SCE. Therefore, all these monoanionic gold bis(dithiolene) and bis(diselenolene) complexes are easier to oxidize than Auranofin.
# All reagents and materials from commercial sources were used without further purification. NMR spectra were recorded at room temperature using CDCl3 unless otherwise stated (Figures S7–S15). Chemical shifts are reported in ppm and ^1H NMR spectra were referenced to residual CHCl3 (7.26 ppm) and ^13C NMR spectra were referenced to CHCl3 (77.2 ppm). Mass spectra were recorded with an Agilent 6510 instrument for organics compounds and with a Thermo-Fisher Q-Exactive instrument for complexes by the Center Régional de Mesures Physiques de l’Ouest, Rennes. Cyclic voltammograms (CV)s were carried out on a 10^−3 M solution of complex in CH2Cl2-[NBu4] [PF6] 0.1 M. CVs were recorded on a Biologic SP-50 instruments at 0.1 Vs^−1 on a platinum disk electrode. Potentials were measured versus KCl Saturated Calomel Electrode (SCE). Column chromatography was performed using silica gel Merck 60 (70–260 mesh). The solvents were purified and dried by standard methods. The proligand 2-SEt(=C(CN2)), [72] and complexes [N][AuSMe(=S)], [73] [N][AuSEt(=S)], [74] [P][AuSEt(=O)], [75] [N][AuSeEt(=S)] [75] and [P][AuSPr(=S)] [76] were synthesized according to the previously reported procedure.
Structure (SMILES),"E1/2 −1/0, first value of cell (anodic peak) (Cyclic voltammetry)",E −2/−1 (reduction of monoanion into dianion) (Cyclic voltammetry),"E1/2 −1/0, second value of cell (cathodic peak) (Cyclic voltammetry)",Epa2 0/+1 (Cyclic voltammetry),Epc2 0/+1 (Cyclic voltammetry),further results
CC(C)n1c2c(sc1=S)[Se][Au-]1([Se]c3sc(=S)n(C(C)C)c3[Se]1)[Se]2.CC[N+](CC)(CC)CC [[N][AuSeiPr(=S)]],,,,,,"IC50 ([1]; 24 h incubation, read-out: IC50 A2780, 24 h): 30.3 ± 3.39 µM; IC50 ([1]; 48 h incubation, read-out: IC50 A2780, 48 h): 8.27 ± 1.12 µM; MIC C. albicans SC5134 (C. albicans SC5134): >125 µg/mL; MIC C. glabrata CBS138 (C. glabrata CBS138): 2.1 ± 0.1 µg/mL; MIC S. aureus Newman (S. aureus Newman): 1.5 ± 0.1 µg/mL; MIC E. coli ATCC25922 (E. coli ATCC25922): >250 µg/mL; IC50 [2]: 8.76 ± 0.69 µM"
CCn1c2c(sc1=[Se])[Se][Au-]1([Se]c3sc(=[Se])n(CC)c3[Se]1)[Se]2 [[AuSeEt(=Se)]^−1],0.43/− ** V vs. SCE,−0.84 ** V vs. SCE,,,,
CCCn1c2c(sc1=[Se])[S][Au-]1([S]c3sc(=[Se])n(CCC)c3[S]1)[S]2 [[AuSPr(=Se)]^−1],0.45/− ** V vs. SCE,−0.84 ** V vs. SCE,,,,
Cn1c2c(sc1=S)[S][Au-]1([S]c3sc(=S)n(C)c3[S]1)[S]2 [[AuSMe(=S)]^−1],0.51 V vs. SCE,−0.85 V vs. SCE,0.44 V vs. SCE,0.73 V vs. SCE,0.56 V vs. SCE,
CCn1c2c(sc1=S)[S][Au-]1([S]c3sc(=S)n(CC)c3[S]1)[S]2 [[AuSEt(=S)]^−1],0.55 V vs. SCE,−0.90 V vs. SCE,0.49 V vs. SCE,0.71 V vs. SCE,0.61 V vs. SCE,
CCN1C(=C(C#N)C#N)SC2=C1[S][Au-]1([S]2)[S]C2=C([S]1)N(CC)C(=C(C#N)C#N)S2 [[AuSEt(=C(CN)2)]^−1],0.71 V vs. SCE,,0.66 V vs. SCE,1.13 V vs. SCE,1.06 V vs. SCE,"potential difference between the second and the first oxidation potentials (Cyclic voltammetry; CH2Cl2, NBu4PF6): 410 mV"
CCn1c2c(sc1=[Se])[S][Au-]1([S]c3sc(=[Se])n(CC)c3[S]1)[S]2 [[AuSEt(=Se)]^−1],0.40/− ** V vs. SCE,−0.80 ** V vs. SCE,,,,
CC(C)n1c2c(sc1=S)[Se][Au-]1([Se]c3sc(=S)n(C(C)C)c3[Se]1)[Se]2 [[AuSeiPr(=S)]^−1],0.62 V vs. SCE,−0.94 V vs. SCE,0.57 V vs. SCE,0.75/− V vs. SCE,,
